Assay results: ChEMBL document CHEMBL5241054, “Effective anti-aromatase therapy to battle against estrogen-mediated breast cancer: Comparative SAR/QSAR assessment on steroidal aromatase inhibitors” (Eur J Med Chem, 2020)

Target: T1, Aromatase (Homo sapiens, UniProt P11511)
T1 sequence (P11511 whole entry): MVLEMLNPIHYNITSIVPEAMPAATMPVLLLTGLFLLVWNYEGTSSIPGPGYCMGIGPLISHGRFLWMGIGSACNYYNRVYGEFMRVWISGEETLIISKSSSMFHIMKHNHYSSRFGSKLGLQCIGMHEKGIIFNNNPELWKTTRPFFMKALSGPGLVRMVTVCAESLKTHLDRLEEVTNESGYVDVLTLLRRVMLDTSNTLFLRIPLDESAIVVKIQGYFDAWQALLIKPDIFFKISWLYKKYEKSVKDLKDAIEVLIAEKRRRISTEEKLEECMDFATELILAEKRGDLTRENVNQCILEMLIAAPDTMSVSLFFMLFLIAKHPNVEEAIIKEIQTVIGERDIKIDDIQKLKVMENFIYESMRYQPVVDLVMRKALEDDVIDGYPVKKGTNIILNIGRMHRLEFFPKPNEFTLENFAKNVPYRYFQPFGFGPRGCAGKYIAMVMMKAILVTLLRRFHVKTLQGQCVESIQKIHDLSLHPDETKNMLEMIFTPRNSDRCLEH

Row | SMILES | IC50
1 | C[C@]12CC[C@@H]3c4ccc(O)c(NC(=O)c5ccncc5)c4CC[C@H]3[C@@H]1CCC2=O | 28600 nM
2 | C[C@]12CCC(=O)C=C1[C@@H](CCCc1ccccc1)C[C@@H]1[C@@H]2CC[C@]2(C)C(=O)CC[C@@H]12 | 400000 nM
3 | C[C@]12CC[C@H]3[C@@H](C(=O)C=C4CCCC[C@@]43C=O)[C@@H]1CCC2=O | 60000 nM
4 | CC(=O)O[C@H]1C2=CC(=O)CC[C@]2(C)[C@H]2CC[C@]3(C)C(=O)CC[C@H]3[C@@H]2C1N=[N+]=[N-] (some centres not stated) | 23100 nM
5 | C[C@]12CC[C@H]3[C@@H](C(=O)C=C4C=CCC[C@@]43C=O)[C@@H]1CCC2=O | 11000 nM
6 | CCCCC[C@@H]1C[C@@H]2[C@H](CC[C@]3(C)C(=O)CC[C@@H]23)[C@@]2(C)C=CC(=O)C=C12 | 54 nM
7 | COC1=C2C(=O)C[C@@H]3[C@H](CC[C@]4(C)C(=O)CC[C@@H]34)[C@@]2(C)CCC1=O | 2000 nM
8 | C[C@]12CC[C@@H]3c4ccc(O)cc4[C@@H](c4ccccc4)C[C@H]3[C@@H]1CCC2=O | 1400 nM
9 | C[C@]12CCC(=O)C=C1[C@@H](CCc1ccccc1)C[C@@H]1[C@@H]2CC[C@]2(C)C(=O)CC[C@@H]12 | 140000 nM
10 | C=C[C@]12CCC(=O)C=C1CC[C@@H]1[C@@H]2CC[C@]2(C)C(=O)CC[C@@H]12 | 100 nM
11 | C[C@]12CC[C@H]3[C@@H](CCC4=CC(=O)CC[C@@]43CBr)[C@@H]1CCC2=O | 1400 nM
12 | C[C@]12C=CC(=O)C=C1[C@H](CCCCCc1ccccc1)C[C@@H]1[C@@H]2CC[C@]2(C)C(=O)CC[C@@H]12 | 100 nM
13 | C[C@]12CC[C@H]3[C@@H](CC(=O)C4=CCCC[C@@]43C)[C@@H]1CC[C@@H]2O | 1800 nM
14 | C[C@]12CCC(=O)C(Sc3ccccc3)=C1C=C[C@@H]1[C@@H]2CC[C@]2(C)C(=O)CC[C@@H]12 | 25 nM
15 | CCCCCC1=C[C@@H]2[C@H](CC[C@]3(C)C(=O)CC[C@@H]23)[C@@]2(C)C=CC(=O)C=C12 | 140 nM
16 | C[C@]12CCC(=O)C=C1[C@H](N=[N+]=[N-])C(O)[C@@H]1[C@@H]2CC[C@]2(C)C(=O)CC[C@@H]12 (some centres not stated) | 47000 nM
17 | C[C@]12C=CC(=O)C(Sc3ccccc3)=C1CC[C@@H]1[C@@H]2CC[C@]2(C)C(=O)CC[C@@H]12 | 500 nM
18 | CCC[C@H]1C[C@@H]2[C@H](CC[C@]3(C)C(=O)CC[C@@H]23)[C@@]2(C)C=CC(=O)C=C12 | 270 nM
19 | CCCCC1=C[C@@H]2[C@H](CC[C@]3(C)C(=O)CC[C@@H]23)[C@@]2(C)CCC(=O)C=C12 | 265 nM
20 | CC1C[C@H]2[C@@H]3CC[C@H](O)[C@@]3(C)CC[C@@H]2[C@@]2(C)C=CC(=O)C=C12 (some centres not stated) | 67 nM
21 | CC1(C)C[C@@]2(C)C(=CC1=O)[C@H](Br)C[C@@H]1[C@@H]2CC[C@]2(C)C(=O)CC[C@@H]12 | 110 nM
22 | CC[C@@H]1C[C@@H]2[C@H](CC[C@]3(C)C(=O)CC[C@@H]23)[C@@]2(C)CCC(=O)C=C12 | 140 nM
23 | C[C@]12CC[C@H]3[C@@H](CCC4=CC(=O)C=C[C@@]43CI)[C@@H]1CCC2=O | 5500 nM
24 | CCCCCCCC1=C[C@@H]2[C@H](CC[C@]3(C)C(=O)CC[C@@H]23)[C@@]2(C)C=CC(=O)C=C12 | 230 nM
25 | CCCCC1=C[C@@]2(C)C(=CC1=O)CC[C@@H]1[C@@H]2CC[C@]2(C)C(=O)CC[C@@H]12 | 1840 nM
26 | CCCCC1=C[C@@H]2[C@H](CC[C@]3(C)C(=O)CC[C@@H]23)[C@@]2(C)C=CC(=O)C=C12 | 250 nM

Row | SMILES | IC50
27 | CCCC[C@@H]1C[C@@H]2[C@H](CC[C@]3(C)C(=O)CC[C@@H]23)[C@@]2(C)C=CC(=O)C=C12 | 180 nM
28 | C[C@]12C=C(CCc3ccc(C(F)(F)F)cc3)C(=O)C=C1CC[C@@H]1[C@@H]2CC[C@]2(C)C(=O)CC[C@@H]12 | 34100 nM
29 | C[C@]12C=CC(=O)C=C1[C@@H](CCCc1ccccc1)C[C@@H]1[C@@H]2CC[C@]2(C)C(=O)CC[C@@H]12 | 511 nM
30 | C[C@]12CC[C@H]3[C@@H](CCC4=CCCC[C@@]43C)[C@@H]1C[C@@H](O)[C@@H]2O | 700000 nM
31 | C[C@]12CCC(=O)C=C1C(CCCCCc1ccccc1)=C[C@@H]1[C@@H]2CC[C@]2(C)C(=O)CC[C@@H]12 | 300 nM
32 | C[C@]12CCC(=O)C=C1[C@H](OC(=O)CBr)C[C@@H]1[C@@H]2CC[C@]2(C)C(=O)CC[C@@H]12 | 45000 nM
33 | C[C@]12CC[C@@H]3c4ccc(O)c(F)c4CC[C@H]3[C@@H]1CCC2=O | 26000 nM
34 | C[C@]12CCC(=O)C=C1[C@@H](CCCCCc1ccccc1)C[C@@H]1[C@@H]2CC[C@]2(C)C(=O)CC[C@@H]12 | 560000 nM
35 | C[C@]12C=CC(=O)C=C1C[C@@H](CCc1cccc([N+](=O)[O-])c1)[C@@H]1[C@@H]2CC[C@]2(C)C(=O)CC[C@@H]12 | 133 nM
36 | C[C@]12CCCCC1=CC[C@@H]1[C@@H]2CC[C@]2(C)C(=O)CC[C@@H]12 | 681 nM
37 | CC[C@H]1C[C@@H]2[C@H](CC[C@]3(C)C(=O)CC[C@@H]23)[C@@]2(C)C=CC(=O)C=C12 | 250 nM
38 | C[C@]12CC[C@H]3[C@@H](CC(=O)C4=CCCC[C@@]43CO)[C@@H]1CC[C@@H]2O | 25000 nM
39 | CCCCCC1=C[C@@H]2[C@H](CC[C@]3(C)C(=O)CC[C@@H]23)[C@@]2(C)CCC(=O)C=C12 | 220 nM
40 | C[C@]12CC[C@H]3[C@@H](C=CC4=CC(=O)C=C[C@@]43CI)[C@@H]1CCC2=O | 4700 nM
41 | CC(=O)O[C@H]1C[C@@H]2[C@H](CC[C@]3(C)C(=O)CC[C@@H]23)[C@@]2(C)CCCC=C12 | 190 nM
42 | C[C@]12CCC(=O)C=C1C1OC1[C@@H]1[C@@H]2CC[C@]2(C)C(=O)CC[C@@H]12 (some centres not stated) | 39000 nM
43 | C[C@]12CCCC=C1CC[C@@H]1[C@@H]2CC[C@]2(C)C(=O)[C@@H](Br)C[C@@H]12 | 5900 nM
44 | CCCC[C@@H]1C[C@@H]2[C@H](CC[C@]3(C)C(=O)CC[C@@H]23)[C@@]2(C)CCC(=O)C=C12 | 511 nM
45 | C[C@]12C=CC(=O)C=C1C(Cc1ccccc1)=C[C@@H]1[C@@H]2CC[C@]2(C)C(=O)CC[C@@H]12 | 92.9 nM
46 | C[C@]12CC[C@H]3[C@@H](C(=O)C=C4C(=O)CCC[C@@]43C=O)[C@@H]1CCC2=O | 51100 nM
47 | C[C@]12CC[C@@H]3c4ccc(O)cc4[C@H](CCCc4ccccc4)C[C@H]3[C@@H]1CC[C@@H]2O | 28000 nM
48 | C[C@]12CC[C@@H]3c4cc(C=O)c(O)cc4CC[C@H]3[C@@H]1CCC2=O | 11000 nM
49 | C[C@]12C[C@@H](CCc3ccccc3)C(=O)C=C1CC[C@@H]1[C@@H]2CC[C@]2(C)C(=O)CC[C@@H]12 | 126000 nM
50 | C[C@]12C=C(Br)C(=O)C=C1CC[C@@H]1[C@@H]2CC[C@]2(C)C(=O)CC[C@@H]12 | 1840 nM
51 | CC(=O)OC[C@]12CCCC=C1CC[C@@H]1[C@@H]2CC[C@]2(C)C(O)CC[C@@H]12 (some centres not stated) | 44000 nM
52 | CC1(C)C[C@@]2(C)C(=CC1=O)[C@@H](Br)C[C@@H]1[C@@H]2CC[C@]2(C)C(=O)CC[C@@H]12 | 100 nM
